This is an account of results in patent US20100249064A1, “METHODS AND COMPOSITIONS FOR TREATING DISEASES AND CONDITIONS INVOLVING HIGHER MOLECULAR WEIGHT HYALURONAN” (University of Chicago, priority 2007, published 2010).

The subject of data set [1] is ARDS. The conditions noted are these: cited from earlier work; for Outcome (clinical trials in ARDS): patients with ARDS.
The target of data set [2] is T1, purified HABP2 (Homo sapiens, UniProt Q14520).
T1 construct: host or cells: human pulmonary endothelial cells (EC); secreted into the medium, immunoprecipitated with anti-HABP2 antibody
T1 sequence (Q14520 24-560): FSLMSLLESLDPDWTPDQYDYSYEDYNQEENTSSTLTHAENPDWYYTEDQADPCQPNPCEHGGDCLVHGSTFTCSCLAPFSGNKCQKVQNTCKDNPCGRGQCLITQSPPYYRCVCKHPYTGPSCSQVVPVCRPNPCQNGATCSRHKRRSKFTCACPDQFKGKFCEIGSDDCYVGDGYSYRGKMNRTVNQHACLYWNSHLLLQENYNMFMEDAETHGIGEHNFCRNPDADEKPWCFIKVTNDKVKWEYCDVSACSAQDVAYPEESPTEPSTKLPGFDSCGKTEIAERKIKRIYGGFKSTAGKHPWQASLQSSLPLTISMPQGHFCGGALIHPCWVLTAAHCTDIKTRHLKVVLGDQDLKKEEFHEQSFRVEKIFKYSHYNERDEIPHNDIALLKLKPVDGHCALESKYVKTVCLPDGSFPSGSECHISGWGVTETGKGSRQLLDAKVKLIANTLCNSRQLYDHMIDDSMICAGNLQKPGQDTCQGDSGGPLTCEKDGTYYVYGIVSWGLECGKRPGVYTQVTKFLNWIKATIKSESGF
The data set can be described thus: HABP2 protease assay (QuantiCleave, succinylated casein). The format is biochemical. The conditions noted are these: 100 μM purified PABD, 500 nM HMW-HA or LMW-HA. Here is the method: HABP2 protease assay. Protease activity is measured using the QuantiCleave™ Protease Assay Kit (Pierce). Briefly, the immunobeads are incubated with succinylated casein for one hour followed by development with TNBSA (2,4,6-trinitrobenzene sulfonic acid) and read at 450 nm.
HABP2 protein purification and protease activity determination. Media from HABP2 overexpression vector-transfected EC (Origene) was immunoprecipitated with anti-HABP2 antibody-conjugated Sepharose beads (Sigma). The immunobeads were then extensively washed in 50 mM Borate, pH=8.5 and eluted with 1M NaCl with 0.1% NP-40 and dialyzed against a 1,000 fold excess of 50 mM Borate, pH=8.5. Protein assays were performed to quantitate total protein. The purified protein was run on SDS-PAGE and either immunoblotted with anti-HABP2 antibody (Novus Biologicals) or stained with Imperial™ protein stain (Pierce) to check for purity. Protease activity was measured using the QuantiCleave™ Protease Assay Kit (Pierce). Briefly, the immunobeads were incubated with succinylated casein for one hour followed by development with TNBSA (2,4,6-trinitrobenzene sulfonic acid) and read at 450 nm.
Determination of the role of HMW-HA/HABP2/C1INH interactions in regulating angiogenesis in vitro. Human pulmonary EC (Cambrex), grown in EBM-2 complete medium (Cambrex) at 37° C. in a humidified atmosphere of 5% CO2, 95% air, with passages 6-10 used for experimentation will be treated with or without 100 nM HMW-HA and/or 100 nM VEGF in the presence or absence of HABP2 and/or C1INH overexpression vectors (Origene), exogenous purified recombinant HABP2 polyanion binding domain and/or C1INH (Novus Biologicals) and/or siRNA (scramble, HABP2 or C1INH). For HABP2 protease activity determination, media from HABP2 overexpressing EC (see above) was immunoprecipitated with anti-HABP2 antibody-conjugated Sepharose beads (Sigma). The immunobeads were then extensively washed in 50 mM Borate, pH=8.5 and protease activity was measured using the QuantiCleave™ Protease Assay Kit (Pierce). Briefly, the immunobeads were incubated with succinylated casein for one hour followed by development with TNBSA (2,4,6-trinitrobenzene sulfonic acid) and read at 450 nm.

As to Nitric Oxide [NO], in data set [1] (ARDS patients), the adverse effects result is “causes methemoglobinemia, increased” and the pulmonary artery pressure entry is recorded as “NO reduces pulmonary artery pressure but”. Also, the “Outcome (clinical trials in ARDS)” value in data set [1] is given as “several multicenter clinical trials have shown no”.
On to `C[C@H]1C[C@@H]2[C@H]([C@@H](O)C[C@@]3(C)[C@H]2CC[C@]3(O)C(=O)CO)[C@@]2(C)C=CC(=O)C=C12` [Methyprednisolone], for which, in data set [1] (administered through the fibroproliferative stage of ARDS, 62% in placebo cohort), the hospital mortality result was “hospital mortality to 12% from 62% in placebo”.
As to `C[C@@H](O)CCCCn1c(=O)c2c(ncn2C)n(C)c1=O` [Lisofylline], in data set [1], the “Outcome (clinical trials in ARDS)” value is recorded as “trials failed to show efficacy in increasing”.

B1: recombinant peptide of the PABD of HABP2: recombinant HABP2 polyanion binding domain, amino acids 110-188 of SEQ ID NO:2 (SEQ ID NO:37) (protein, listed as Homo sapiens)
chain: KVQNTCKDNPCGRGQCLITQSPPYYRCVCKHPYTGPSCSQVVPVCRPNPCQNGATCSRHKRRSKFTCACPDQFKGKFCE
Consider B1, for which the “blocking of HA effects on HABP2 protease activity” value in data set [2] was “The effects of LMW-HA, but not HMW-HA, were blocked”.
